The results in this text go back to US20110086759A1, “CHEMICAL COMPOUNDS” (SYNGENTA CROP PROTECTION, INC., priority 2007, published 2011).

What all share (type): in vivo
Assay [1] deals with Echinochloa crus-galli (ECHCG). The assay is described as follows: Post-emergence biological efficacy, glasshouse pot test. To be noted: 312 h. The gist of the method:
(§1)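 Pot-grown weeds were sprayed 8 days after sowing with test compound in acetone/water (50:50) with 0.5% Tween 20 at 1000 or 250 g/ha. Glasshouse at 24/16° C day/night, 14 h light, 65% humidity. Damage scored 0-100 (100 = total damage) after 13 days.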

Assay [2] has as its system Amaranthus retoflexus (AMARE). The description is as above. To be noted: Amaranthus retroflexus, 312 h. The gist of the method:
as §1

The subject of assay [3] is Solanum nigrum (SOLNI). The assay is described as above. Conditions: 312 h. The gist of the method:
as §1

Assay [4] deals with Alopecurus myosuroides (ALOMY). The assay is described as above. Conditions: 312 h. The gist of the method:
as §1

Assay [5] has as its system Setaria faberi (SETFA). The assay is described as above. To be noted: 312 h. The gist of the method: as §1
Assay [6] concerns Ipomea hederaceae (IPOHE). The description is as above. To be noted: Ipomoea hederacea, 312 h. The gist of the method:
as §1

Assay [7] concerns Echinochloa crus-galli (ECHCG). The assay is described as follows: Pre-emergence biological efficacy, glasshouse pot test. To be noted: 312 h. The gist of the method: (§2)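 Visual phytotoxicity (0 no damage, 100 total damage) assessed 13 d after treatment. Soil-sown pots sprayed one day post-sowing; dose 1000 or 250 g/ha; formulation in acetone/water 50:50, 0.5% Tween 20.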
Assay [8] concerns Amaranthus retoflexus (AMARE). The description is as above. Conditions: Amaranthus retroflexus, 312 h. The gist of the method:
as §2

The subject of assay [9] is Solanum nigrum (SOLNI). The description is as above. Conditions: 312 h. The gist of the method:
as §2

Assay [10] concerns Alopecurus myosuroides (ALOMY). The assay is described as above. Conditions: 312 h. The gist of the method:
as §2

For assay [11], the system named is Setaria faberi (SETFA). The description is as above. To be noted: 312 h. The gist of the method: as §2
Assay [12] deals with Ipomea hederaceae (IPOHE). The description is as above. Conditions: Ipomoea hederacea, 312 h. The gist of the method:
as §2

[13] abbreviates: Rate 1,000 g/ha, post-emergence spray, evaluated after 13 days (100=total damage to plant; 0=no damage to plant), read-out: Percentage damage caused to weed species, post-emergence, ECHCG.
The mark [14] stands for this setting: Rate 1,000 g/ha, post-emergence spray, evaluated after 13 days (100=total damage to plant; 0=no damage to plant), read-out: Percentage damage caused to weed species, post-emergence, AMARE.
Where [15] appears, read: Rate 1,000 g/ha, post-emergence spray, evaluated after 13 days (100=total damage to plant; 0=no damage to plant), read-out: Percentage damage caused to weed species, post-emergence, SOLNI.
The mark [16] stands for this setting: Rate 1,000 g/ha, post-emergence spray, evaluated after 13 days (100=total damage to plant; 0=no damage to plant), read-out: Percentage damage caused to weed species, post-emergence, ALOMY.
[17] abbreviates: Rate 1,000 g/ha, post-emergence spray, evaluated after 13 days (100=total damage to plant; 0=no damage to plant), read-out: Percentage damage caused to weed species, post-emergence, SETFA.
[18] abbreviates: Rate 1,000 g/ha, post-emergence spray, evaluated after 13 days (100=total damage to plant; 0=no damage to plant), read-out: Percentage damage caused to weed species, post-emergence, IPOHE.
Setting [19] is: pre-emergence, rate 1,000 g/ha, evaluated after 13 days (100=total damage to plant; 0=no damage), read-out: Percentage damage caused to weed species, ECHCG.
The mark [20] stands for this setting: pre-emergence, rate 1,000 g/ha, evaluated after 13 days (100=total damage to plant; 0=no damage), read-out: Percentage damage caused to weed species, AMARE.
Where [21] appears, read: pre-emergence, rate 1,000 g/ha, evaluated after 13 days (100=total damage to plant; 0=no damage), read-out: Percentage damage caused to weed species, SOLNI.
Setting [22] is: pre-emergence, rate 1,000 g/ha, evaluated after 13 days (100=total damage to plant; 0=no damage), read-out: Percentage damage caused to weed species, ALOMY.
Setting [23] is: pre-emergence, rate 1,000 g/ha, evaluated after 13 days (100=total damage to plant; 0=no damage), read-out: Percentage damage caused to weed species, SETFA.
Where [24] appears, read: pre-emergence, rate 1,000 g/ha, evaluated after 13 days (100=total damage to plant; 0=no damage), read-out: Percentage damage caused to weed species, IPOHE.
[25] abbreviates: post-emergence, 1,000 g/ha, evaluated after 13 days (100=total damage; 0=no damage), read-out: Percentage damage caused to weed species, ECHCG.
Where [26] appears, read: post-emergence, 1,000 g/ha, evaluated after 13 days (100=total damage; 0=no damage), read-out: Percentage damage caused to weed species, AMARE.
[27] abbreviates: post-emergence, 1,000 g/ha, evaluated after 13 days (100=total damage; 0=no damage), read-out: Percentage damage caused to weed species, SOLNI.
Where [28] appears, read: post-emergence, 1,000 g/ha, evaluated after 13 days (100=total damage; 0=no damage), read-out: Percentage damage caused to weed species, ALOMY.
[29] abbreviates: post-emergence, 1,000 g/ha, evaluated after 13 days (100=total damage; 0=no damage), read-out: Percentage damage caused to weed species, SETFA.
The mark [30] stands for this setting: post-emergence, 1,000 g/ha, evaluated after 13 days (100=total damage; 0=no damage), read-out: Percentage damage caused to weed species, IPOHE.
The mark [31] stands for this setting: pre-emergence, 1,000 g/ha, evaluated after 13 days (100=total damage; 0=no damage), read-out: Percentage damage ECHCG.
[32] abbreviates: pre-emergence, 1,000 g/ha, evaluated after 13 days (100=total damage; 0=no damage), read-out: Percentage damage AMARE.
[33] abbreviates: pre-emergence, 1,000 g/ha, evaluated after 13 days (100=total damage; 0=no damage), read-out: Percentage damage SOLNI.
The mark [34] stands for this setting: pre-emergence, 1,000 g/ha, evaluated after 13 days (100=total damage; 0=no damage), read-out: Percentage damage ALOMY.
The mark [35] stands for this setting: pre-emergence, 1,000 g/ha, evaluated after 13 days (100=total damage; 0=no damage), read-out: Percentage damage SETFA.
[36] abbreviates: pre-emergence, 1,000 g/ha, evaluated after 13 days (100=total damage; 0=no damage), read-out: Percentage damage IPOHE.

As for `COC(=O)c1nc(C2CC2)nc(N(C)Cc2ccc(Cl)c(Cl)c2)c1Cl` [Compound 5-105, 5-Chloro-2-cyclopropyl-4-[N-(3,4-dichlorophenyl-methyl)-N-methyl-amino]-6-methoxy-carbonylpyrimidine], the pest or weed control at 1000 g/ha in assay [1] (setting [13]) was determined as 40%; in assay [2] (setting [14]), 100%; in the assay with Solanum nigrum (SOLNI) [3] (setting [15]), 80%; in [4] (setting [16]) it was 30%; with Setaria faberi (SETFA) [5] (setting [17]), 60%; in assay [6] (setting [18]), 80%. Also, the pest or weed control at 1000 g/ha in assay [7] (setting [19]) came to 10%; in assay [8] (setting [20]), 80%; in the assay on Solanum nigrum (SOLNI) [9] (setting [21]) it was 60%; in [10] (setting [22]), 10%; in the assay with Setaria faberi (SETFA) [11] (setting [23]), 30%; in assay [12] (setting [24]) it was 60%.

As to `COC(=O)c1nc(-c2cc(F)c(F)cc2F)nc(NCc2ccco2)c1Cl` [Compound 241-48, 5-Chloro-4-(furan-2-ylmethylamino)-6-methoxycarbony-2-(2,4,5-trifluoro-phenyl)pyrimidine], the pest or weed control at 1000 g/ha worked out at 0% in assay [1] (setting [13]); 80% in [2] (setting [14]); 50% with Solanum nigrum (SOLNI) [3] (setting [15]); 10% in [4] (setting [16]); 10% in the assay with Setaria faberi (SETFA) [5] (setting [17]); 60% in assay [6] (setting [18]). Further, the pest or weed control at 1000 g/ha is 0% in [7] (setting [19]); 80% in assay [8] (setting [20]); 0% in the assay with Solanum nigrum (SOLNI) [9] (setting [21]); 0% in assay [10] (setting [22]); 0% in the assay with Setaria faberi (SETFA) [11] (setting [23]); 10% in assay [12] (setting [24]).

In the case of `COC(=O)c1nc(-c2ccc(Cl)s2)nc(NCc2ccco2)c1Cl` [Compound 262-48, 5-Chloro-2-(5-chlorothiophen-2-yl)-4-(furan-2-yl-methylamino)-6-methoxycarbonyl-pyrimidine], the pest or weed control at 1000 g/ha in assay [1] (setting [13]) stood at 20%; in assay [2] (setting [14]), 100%; with Solanum nigrum (SOLNI) [3] (setting [15]), 80%; in assay [4] (setting [16]), 20%; in the assay on Setaria faberi (SETFA) [5] (setting [17]) it was 0%; in [6] (setting [18]), 60%. For the same compound, the pest or weed control at 1000 g/ha in [7] (setting [19]) worked out at 0%; in [8] (setting [20]) it was 80%; in the assay on Solanum nigrum (SOLNI) [9] (setting [21]), 20%; in [10] (setting [22]) it was 0%; in the assay on Setaria faberi (SETFA) [11] (setting [23]) it was 0%; in [12] (setting [24]) it was 0%.

Take `COC(=O)c1nc(C2CC2)nc(NCc2ccccc2[N+](=O)[O-])c1Cl` [Compound 4-90, 5-Chloro-2-cyclopropyl-6-methoxycarbonyl-4-(2-nitrophenyl-methylamino)-pyrimidine]: the pest or weed control at 1000 g/ha turned out to be 80% in assay [1] (setting [25]); 100% in [2] (setting [26]); 100% with Solanum nigrum (SOLNI) [3] (setting [27]); 50% in [4] (setting [28]); 100% in the assay on Setaria faberi (SETFA) [5] (setting [29]); 100% in [6] (setting [30]). For the same compound, the pest or weed control at 1000 g/ha in [7] (setting [31]) came out at 60%; in [8] (setting [32]) it was 100%; in the assay with Solanum nigrum (SOLNI) [9] (setting [33]), 100%; in assay [10] (setting [34]), 50%; in the assay with Setaria faberi (SETFA) [11] (setting [35]) it was 80%; in assay [12] (setting [36]), 100%.

As for `COC(=O)c1nc(C2CC2)nc(NCc2cccc(-c3ccccc3)c2)c1Cl` [Compound 4-95, 5-Chloro-2-cyclopropyl-6-methoxycarbonyl-4-(3-phenylphenyl-methylamino)-pyrimidine], the pest or weed control at 1000 g/ha in [1] (setting [25]) was 60%; in assay [2] (setting [26]), 90%; in the assay on Solanum nigrum (SOLNI) [3] (setting [27]), 80%; in assay [4] (setting [28]), 20%; in the assay with Setaria faberi (SETFA) [5] (setting [29]), 60%; in assay [6] (setting [30]) it was 100%. Further, the pest or weed control at 1000 g/ha in assay [7] (setting [31]) turned out to be 10%; in [8] (setting [32]) it was 60%; with Solanum nigrum (SOLNI) [9] (setting [33]), 30%; in [10] (setting [34]) it was 10%; with Setaria faberi (SETFA) [11] (setting [35]) it was 10%; in [12] (setting [36]), 30%.

As to `COC(=O)c1nc(C2CC2)nc(NC2(/C=C/c3c(F)cccc3F)CC2)c1Cl` [Compound 4-26, 5-Chloro-2-cyclopropyl-4-{1-[2-(2,6-difluoro-phenyl)ethenyl]-cyclopropylamino}-6-methoxy-carbonylpyrimidine], the pest or weed control at 1000 g/ha was determined as 20% in assay [1] (setting [25]); 100% in assay [2] (setting [26]); 70% in the assay with Solanum nigrum (SOLNI) [3] (setting [27]); 20% in assay [4] (setting [28]); 60% in the assay on Setaria faberi (SETFA) [5] (setting [29]); 90% in assay [6] (setting [30]). Also, the pest or weed control at 1000 g/ha in assay [7] (setting [31]) amounted to 0%; in [8] (setting [32]) it was 20%; with Solanum nigrum (SOLNI) [9] (setting [33]) it was 20%; in [10] (setting [34]), 10%; in the assay with Setaria faberi (SETFA) [11] (setting [35]), 0%; in assay [12] (setting [36]), 50%.

On to `COC(=O)c1nc(C2CC2)nc(NCc2cccnc2)c1Cl` [Compound 4-156, 5-Chloro-2-cyclopropyl-6-methoxycarbonyl-4-(pyrid-3-ylmethyl-amino)pyrimidine], for which the pest or weed control at 1000 g/ha stood at 50% in assay [1] (setting [25]); 100% in [2] (setting [26]); 90% in the assay with Solanum nigrum (SOLNI) [3] (setting [27]); 30% in [4] (setting [28]); 70% with Setaria faberi (SETFA) [5] (setting [29]); 70% in [6] (setting [30]). In addition, the pest or weed control at 1000 g/ha in assay [7] (setting [31]) came out at 0%; in assay [8] (setting [32]) it was 50%; in the assay on Solanum nigrum (SOLNI) [9] (setting [33]), 30%; in assay [10] (setting [34]), 0%; in the assay with Setaria faberi (SETFA) [11] (setting [35]) it was 0%; in assay [12] (setting [36]) it was 80%.
